According to ChEMBL document CHEMBL6182948 (J Med Chem, 2025):

Columns and labels:
[1] = Cmax in male Sprague-Dawley rat at 2 mg/kg, iv measured up to 24 hrs by LC-MS/MS analysis; type: ADME, organism-based; details: in vivo
A549/TR [2] = assay: Synergistic antiproliferative activity against human A549/Taxol cells assessed as combination index at 5 uM in presence of 0.05 uM paclitaxel by Chou-Talalay method; type: functional
A549/TR [3] = assay: Synergistic antiproliferative activity against human A549/Taxol cells assessed as combination index at 10 uM in presence of 0.1uM paclitaxel by Chou-Talalay method; type: functional
A549/TR [4] = assay: Inhibition of cell invasion in human A549/Taxol cells assessed as reduction in cell migration incubated for 24 hrs by transwell invasion assay relative to control; type: functional, cell-based; details: dose 2.5-10 µM
[5] = MRT (0 to t) in male Sprague-Dawley rat at 10 mg/kg, po measured up to 24 hrs by LC-MS/MS analysis; type: ADME, organism-based; details: in vivo
[6] = MRT (0 to t) in male Sprague-Dawley rat at 2 mg/kg, iv measured up to 24 hrs by LC-MS/MS analysis; type: ADME, organism-based; details: in vivo
[7] = AUC (0 to infinity) in male Sprague-Dawley rat at 2 mg/kg, iv measured up to 24 hrs by LC-MS/MS analysis; type: ADME, organism-based; details: in vivo
A549/TR [8] = assay: Synergistic antiproliferative activity against human A549/Taxol cells assessed as combination index at 2.5 uM in presence of 0.025 uM paclitaxel by Chou-Talalay method; type: functional
[9] = Cmax in male Sprague-Dawley rat at 10 mg/kg, po measured up to 24 hrs by LC-MS/MS analysis; type: ADME, organism-based; details: in vivo
A549/TR [10] = assay: Synergistic antiproliferative activity against human A549/Taxol cells assessed as combination index at 10 uM in presence of 0.025 uM paclitaxel by Chou-Talalay method; type: functional
[11] = AUC (0 to infinity) in male Sprague-Dawley rat at 10 mg/kg, po measured up to 24 hrs by LC-MS/MS analysis; type: ADME, organism-based; details: in vivo
A549/TR [12] = assay: Synergistic antiproliferative activity against human A549/Taxol cells assessed as combination index at 5 uM in presence of 0.1uM paclitaxel by Chou-Talalay method; type: functional
A549/TR [13] = assay: Synergistic antiproliferative activity against human A549/Taxol cells assessed as combination index at 5 uM in presence of 0.025 uM paclitaxel by Chou-Talalay method; type: functional
[14] = MRT (0 to infinity) in male Sprague-Dawley rat at 2 mg/kg, iv measured up to 24 hrs by LC-MS/MS analysis; type: ADME, organism-based; details: in vivo
[15] = Half life in male Sprague-Dawley rat at 2 mg/kg, iv measured up to 24 hrs by LC-MS/MS analysis; type: ADME, organism-based; details: in vivo
A549/TR [16] = assay: Synergistic antiproliferative activity against human A549/Taxol cells assessed as combination index at 20 uM in presence of 0.5 uM paclitaxel by Chou-Talalay method; type: functional
A549/TR [17] = assay: Synergistic antiproliferative activity against human A549/Taxol cells assessed as combination index at 2.5 uM in presence of 0.05 uM paclitaxel by Chou-Talalay method; type: functional
A549/TR [18] = assay: Synergistic antiproliferative activity against human A549/Taxol cells assessed as combination index at 5 uM in presence of 0.5 uM paclitaxel by Chou-Talalay method; type: functional
[19] = MRT (0 to infinity) in male Sprague-Dawley rat at 10 mg/kg, po measured up to 24 hrs by LC-MS/MS analysis; type: ADME, organism-based; details: in vivo
[20] = Apparent volume of distribution in male Sprague-Dawley rat at 2 mg/kg, iv measured up to 24 hrs by LC-MS/MS analysis; type: ADME, organism-based; details: in vivo, read-out: Vz
A549/TR [21] = assay: Inhibition of cell migration in human A549/Taxol cells assessed as suppression of wound closure measured after 24 hrs by scratch-wound healing assay; type: functional, cell-based; details: dose 2.5-5 µM
A549/TR [22] = assay: Inhibition of cell invasion in human A549/Taxol cells assessed as invasive cells at 2.5 uM incubated for 24 hrs by transwell invasion assay relative to control; type: functional; set-up: scale not given: the % may be the effect or the level left
A549/TR [23] = assay: Synergistic antiproliferative activity against human A549/Taxol cells assessed as combination index at 10 uM in presence of 0.5 uM paclitaxel by Chou-Talalay method; type: functional
[24] = AUC (0 to t) in male Sprague-Dawley rat at 2 mg/kg, iv measured up to 24 hrs by LC-MS/MS analysis; type: ADME, organism-based; details: in vivo
A549/TR [25] = assay: Synergistic antiproliferative activity against human A549/Taxol cells assessed as combination index at 20 uM in presence of 0.025 uM paclitaxel by Chou-Talalay method; type: functional
[26] = Half life in male Sprague-Dawley rat at 10 mg/kg, po measured up to 24 hrs by LC-MS/MS analysis; type: ADME, organism-based; details: in vivo
A549/TR [27] = assay: Synergistic antiproliferative activity against human A549/Taxol cells assessed as combination index at 20 uM in presence of 0.1 uM paclitaxel by Chou-Talalay method; type: functional
A549/TR [28] = assay: Synergistic antiproliferative activity against human A549/Taxol cells assessed as combination index at 20 uM in presence of 0.05 uM paclitaxel by Chou-Talalay method; type: functional
[29] = AUC (0 to t) in male Sprague-Dawley rat at 10 mg/kg, po measured up to 24 hrs by LC-MS/MS analysis; type: ADME, organism-based; details: in vivo
A549/TR [30] = assay: Synergistic antiproliferative activity against human A549/Taxol cells assessed as combination index at 2.5 uM in presence of 0.1 uM paclitaxel by Chou-Talalay method; type: functional
[31] = Oral bioavailability in male Sprague-Dawley rat at 10 mg/kg measured up to 24 hrs by LC-MS/MS analysis; type: ADME, organism-based; details: in vivo
A549/TR [32] = assay: Synergistic antiproliferative activity against human A549/Taxol cells assessed as combination index at 2.5 uM in presence of 0.5 uM paclitaxel by Chou-Talalay method; type: functional
A549/TR [33] = assay: Inhibition of cell migration in human A549/Taxol cells assessed as wound closure at 5 uM measured after 24 hrs by scratch-wound healing assay relative to control; type: functional; set-up: scale not given: the % may be the effect or the level left

Q: For `O=C(Nc1cc(Cl)cc(Cl)c1)c1nc(-c2cccc(Cl)c2)cs1`, which Cmax [1] is on record?
A: 4750 ng/mL

Q: What about the CI (A549/TR [2]) of the same compound?
A: 0.16

Q: And the CI (A549/TR [3])?
A: 0.47

Q: And the inhibition (A549/TR [4])?
A: Dose-dependent-effect

Q: And the MRT last at 24 h [5]?
A: 2.32 h

Q: What about the MRT last at 24 h [6] of the same compound?
A: 0.64 h

Q: What about the AUC(0-inf) [7] of the same compound?
A: 2300 ng·h/mL

Q: What about the CI (A549/TR [8]) of the same compound?
A: 0.75

Q: And the Cmax [9]?
A: 81 ng/mL

Q: What about the CI (A549/TR [10]) of the same compound?
A: 0.86

Q: What about the AUC(0-inf) [11] of the same compound?
A: 239 ng·h/mL

Q: What about the CI (A549/TR [12]) of the same compound?
A: 0.15

Q: And the CI (A549/TR [13])?
A: 0.71

Q: And the MRT inf [14]?
A: 0.73 h

Q: And the half-life [15]?
A: 3.78 h

Q: What about the CI (A549/TR [16]) of the same compound?
A: 2.15

Q: And the CI (A549/TR [17])?
A: 0.08

Q: What about the CI (A549/TR [18]) of the same compound?
A: 0.48

Q: And the MRT inf [19]?
A: 2.42 h

Q: What about the Vd [20] of the same compound?
A: 4.77 L/kg

Q: What about the inhibition (A549/TR [21]) of the same compound?
A: Dose-dependent-effect

Q: And the Activity (A549/TR [22])?
A: 35.7%

Q: What about the CI (A549/TR [23]) of the same compound?
A: 1.14

Q: What about the AUC(0-t) at 24 h [24] of the same compound?
A: 2290 ng·h/mL

Q: And the CI (A549/TR [25])?
A: 0.63

Q: And the half-life [26]?
A: 1.12 h

Q: And the CI (A549/TR [27])?
A: 0.63

Q: And the CI (A549/TR [28])?
A: 0.38

Q: What about the AUC(0-t) at 24 h [29] of the same compound?
A: 236 ng·h/mL

Q: And the CI (A549/TR [30])?
A: 0.09

Q: And the bioavailability [31]?
A: 2.08%

Q: What about the CI (A549/TR [32]) of the same compound?
A: 0.24

Q: And the Activity (A549/TR [33])?
A: 3%
